pIC50, pKd: −log10 of the molar value.
Legend:
[1] = molecular target: T1, Phosphatidylinositol 4,5-bisphosphate 3-kinase catalytic subunit beta isoform (Homo sapiens, UniProt P42338); assay: Inhibition of PI3Kbeta in human PC3 cells assessed as reduction in AKT phosphorylation at S473 residue measured after 60 mins by ELISA; type: cell-based
[2] = molecular target: T1, Phosphatidylinositol 4,5-bisphosphate 3-kinase catalytic subunit beta isoform; assay: Inhibition of PI3Kbeta in human PC3 cells assessed as reduction in AKT phosphorylation at Thr308 residue measured after 60 mins by ELISA; type: cell-based
[3] = molecular target: Serine/threonine-protein kinase mTOR (Homo sapiens, UniProt P42345); assay: Binding affinity to wild-type human MTOR (L1382 to W2549 residues) expressed in mammalian expression system by KINOMEScan assay
[4] = molecular target: Phosphatidylinositol 4,5-bisphosphate 3-kinase catalytic subunit gamma isoform (Homo sapiens, UniProt P48736); assay: Binding affinity to wild-type human PIK3Cgamma (S144 to A1102 residues) expressed in mammalian expression system by KINOMEScan assay
Chain of Phosphatidylinositol 4,5-bisphosphate 3-kinase catalytic subunit gamma isoform (P48736 whole entry, the tested form may be a part, canonical isoform): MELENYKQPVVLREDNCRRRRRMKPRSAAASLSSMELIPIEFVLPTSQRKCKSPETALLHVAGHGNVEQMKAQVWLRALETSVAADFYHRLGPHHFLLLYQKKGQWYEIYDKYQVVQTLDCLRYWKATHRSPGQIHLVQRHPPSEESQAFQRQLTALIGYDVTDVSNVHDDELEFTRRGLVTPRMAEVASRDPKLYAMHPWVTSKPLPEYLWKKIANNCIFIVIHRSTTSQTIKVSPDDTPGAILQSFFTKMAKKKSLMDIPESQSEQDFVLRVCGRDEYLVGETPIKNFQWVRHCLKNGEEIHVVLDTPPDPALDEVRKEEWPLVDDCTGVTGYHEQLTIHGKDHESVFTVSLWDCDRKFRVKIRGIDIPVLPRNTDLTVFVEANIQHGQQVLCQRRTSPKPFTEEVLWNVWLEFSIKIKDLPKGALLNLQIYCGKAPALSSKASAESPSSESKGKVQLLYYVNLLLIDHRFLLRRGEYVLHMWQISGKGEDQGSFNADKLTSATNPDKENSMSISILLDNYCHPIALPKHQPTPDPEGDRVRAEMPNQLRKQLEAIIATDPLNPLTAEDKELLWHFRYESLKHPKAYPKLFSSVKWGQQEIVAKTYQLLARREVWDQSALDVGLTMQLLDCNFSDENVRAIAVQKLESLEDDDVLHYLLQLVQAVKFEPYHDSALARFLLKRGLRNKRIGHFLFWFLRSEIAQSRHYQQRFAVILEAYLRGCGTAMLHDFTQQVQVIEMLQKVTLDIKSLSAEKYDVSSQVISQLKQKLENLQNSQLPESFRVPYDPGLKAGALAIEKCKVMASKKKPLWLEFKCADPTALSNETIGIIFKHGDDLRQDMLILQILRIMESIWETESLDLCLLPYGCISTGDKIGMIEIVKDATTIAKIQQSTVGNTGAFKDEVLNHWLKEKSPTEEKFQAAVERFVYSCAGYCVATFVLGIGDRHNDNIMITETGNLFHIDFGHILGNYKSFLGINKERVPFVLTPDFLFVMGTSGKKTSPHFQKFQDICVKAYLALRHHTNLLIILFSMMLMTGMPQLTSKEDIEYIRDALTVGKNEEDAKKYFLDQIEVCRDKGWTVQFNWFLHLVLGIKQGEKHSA

[5] = molecular target: T2, Phosphatidylinositol 4,5-bisphosphate 3-kinase catalytic subunit delta isoform (Homo sapiens, UniProt O00329); assay: Binding affinity to wild-type human PIK3Cdelta (R108 to Q1044 residues) expressed in mammalian expression system by KINOMEScan assay
T2 sequence (O00329 whole entry): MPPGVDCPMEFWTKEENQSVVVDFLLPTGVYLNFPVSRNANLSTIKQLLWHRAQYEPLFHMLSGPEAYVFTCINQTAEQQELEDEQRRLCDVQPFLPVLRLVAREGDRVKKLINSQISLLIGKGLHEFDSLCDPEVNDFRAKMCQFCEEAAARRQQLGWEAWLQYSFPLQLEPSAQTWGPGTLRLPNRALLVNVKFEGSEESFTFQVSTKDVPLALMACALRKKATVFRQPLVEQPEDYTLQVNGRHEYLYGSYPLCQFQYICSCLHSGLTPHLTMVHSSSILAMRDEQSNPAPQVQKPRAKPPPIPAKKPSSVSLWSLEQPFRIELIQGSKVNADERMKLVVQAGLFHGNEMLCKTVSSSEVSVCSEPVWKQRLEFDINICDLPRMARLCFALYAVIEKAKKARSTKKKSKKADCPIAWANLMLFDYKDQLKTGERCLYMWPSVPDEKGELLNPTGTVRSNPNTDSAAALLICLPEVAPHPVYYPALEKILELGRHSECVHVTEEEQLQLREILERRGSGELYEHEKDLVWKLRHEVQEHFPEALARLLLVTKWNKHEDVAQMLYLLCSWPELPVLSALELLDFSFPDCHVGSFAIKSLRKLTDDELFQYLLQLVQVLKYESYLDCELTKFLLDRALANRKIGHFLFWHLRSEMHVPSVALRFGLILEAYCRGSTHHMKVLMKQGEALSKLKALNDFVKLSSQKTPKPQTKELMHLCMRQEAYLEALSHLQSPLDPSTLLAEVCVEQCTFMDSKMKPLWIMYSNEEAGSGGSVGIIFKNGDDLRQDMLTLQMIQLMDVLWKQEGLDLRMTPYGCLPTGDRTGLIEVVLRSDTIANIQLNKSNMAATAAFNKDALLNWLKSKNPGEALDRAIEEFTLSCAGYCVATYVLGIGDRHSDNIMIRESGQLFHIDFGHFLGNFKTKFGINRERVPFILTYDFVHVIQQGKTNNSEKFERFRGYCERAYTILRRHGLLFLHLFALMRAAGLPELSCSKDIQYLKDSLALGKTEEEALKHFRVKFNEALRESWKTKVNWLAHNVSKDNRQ

[6] = molecular target: T1, Phosphatidylinositol 4,5-bisphosphate 3-kinase catalytic subunit beta isoform; assay: Binding affinity to wild-type human PIK3Cbeta (P118 to S1070 residues) expressed in mammalian expression system by KINOMEScan assay
[7] = molecular target: Phosphatidylinositol 4,5-bisphosphate 3-kinase catalytic subunit alpha isoform (Homo sapiens, UniProt P42336); assay: Binding affinity to wild-type human PIK3Calpha (R108 to N1068 residues) expressed in mammalian expression system by KINOMEScan assay
Chain of Phosphatidylinositol 4,5-bisphosphate 3-kinase catalytic subunit alpha isoform (P42336 whole entry, the tested form may be a part, canonical isoform): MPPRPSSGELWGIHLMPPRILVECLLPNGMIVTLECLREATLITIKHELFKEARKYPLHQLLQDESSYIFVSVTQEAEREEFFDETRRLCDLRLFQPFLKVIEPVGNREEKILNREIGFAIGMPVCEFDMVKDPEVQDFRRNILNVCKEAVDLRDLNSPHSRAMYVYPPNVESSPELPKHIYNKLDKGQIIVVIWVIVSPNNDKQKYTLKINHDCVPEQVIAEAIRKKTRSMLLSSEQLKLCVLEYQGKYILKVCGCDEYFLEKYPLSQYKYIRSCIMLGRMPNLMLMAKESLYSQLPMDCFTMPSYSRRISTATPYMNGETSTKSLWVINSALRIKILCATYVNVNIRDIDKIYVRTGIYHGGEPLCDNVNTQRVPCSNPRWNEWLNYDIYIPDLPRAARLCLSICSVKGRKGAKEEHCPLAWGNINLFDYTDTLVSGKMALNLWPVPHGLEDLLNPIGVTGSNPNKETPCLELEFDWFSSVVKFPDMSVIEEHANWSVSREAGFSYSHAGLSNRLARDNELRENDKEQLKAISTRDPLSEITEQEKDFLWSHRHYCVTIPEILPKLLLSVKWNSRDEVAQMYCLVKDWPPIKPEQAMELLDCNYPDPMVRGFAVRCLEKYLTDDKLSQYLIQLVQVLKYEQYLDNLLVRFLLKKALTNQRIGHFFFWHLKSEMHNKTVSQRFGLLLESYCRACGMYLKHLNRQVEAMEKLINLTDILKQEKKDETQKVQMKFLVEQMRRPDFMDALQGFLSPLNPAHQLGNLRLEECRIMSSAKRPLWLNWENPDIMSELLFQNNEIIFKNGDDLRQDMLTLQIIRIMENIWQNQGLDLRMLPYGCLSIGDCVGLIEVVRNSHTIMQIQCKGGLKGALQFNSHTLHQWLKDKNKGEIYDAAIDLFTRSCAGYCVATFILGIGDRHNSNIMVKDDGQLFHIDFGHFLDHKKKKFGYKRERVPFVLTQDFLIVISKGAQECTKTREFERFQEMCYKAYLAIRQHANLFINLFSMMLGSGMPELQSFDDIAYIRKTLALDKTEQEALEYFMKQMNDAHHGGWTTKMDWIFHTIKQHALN

T1 sequence (P42338 whole entry, canonical isoform): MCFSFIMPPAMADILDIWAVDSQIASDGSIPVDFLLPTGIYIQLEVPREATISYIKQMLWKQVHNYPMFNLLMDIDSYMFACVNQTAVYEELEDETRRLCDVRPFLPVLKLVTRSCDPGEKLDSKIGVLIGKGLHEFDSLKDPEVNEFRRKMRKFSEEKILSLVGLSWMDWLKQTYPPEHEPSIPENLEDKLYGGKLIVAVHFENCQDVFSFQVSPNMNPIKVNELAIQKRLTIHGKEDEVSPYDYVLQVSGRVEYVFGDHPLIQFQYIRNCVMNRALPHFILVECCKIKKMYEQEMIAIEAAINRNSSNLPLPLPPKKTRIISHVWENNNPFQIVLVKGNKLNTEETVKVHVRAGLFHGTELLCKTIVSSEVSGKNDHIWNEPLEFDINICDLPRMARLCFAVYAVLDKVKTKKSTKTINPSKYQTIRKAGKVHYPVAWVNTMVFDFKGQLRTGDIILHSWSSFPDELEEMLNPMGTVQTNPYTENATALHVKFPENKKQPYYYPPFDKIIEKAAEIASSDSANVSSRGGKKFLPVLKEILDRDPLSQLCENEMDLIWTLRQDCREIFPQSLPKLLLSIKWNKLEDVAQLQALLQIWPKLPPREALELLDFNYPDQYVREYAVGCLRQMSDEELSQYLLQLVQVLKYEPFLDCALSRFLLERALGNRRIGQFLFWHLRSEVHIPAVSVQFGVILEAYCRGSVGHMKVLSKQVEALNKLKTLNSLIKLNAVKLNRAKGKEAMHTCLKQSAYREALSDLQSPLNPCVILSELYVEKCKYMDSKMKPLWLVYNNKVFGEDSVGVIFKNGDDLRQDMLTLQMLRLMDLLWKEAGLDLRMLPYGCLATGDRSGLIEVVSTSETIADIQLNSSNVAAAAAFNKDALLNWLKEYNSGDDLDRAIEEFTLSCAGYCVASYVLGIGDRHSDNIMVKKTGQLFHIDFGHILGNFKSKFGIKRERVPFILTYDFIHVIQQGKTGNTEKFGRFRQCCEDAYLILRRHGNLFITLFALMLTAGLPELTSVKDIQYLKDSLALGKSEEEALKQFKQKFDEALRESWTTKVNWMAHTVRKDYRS

pIC50 [1] | pIC50 [2] | pKd [3] | pKd [4] | Structure (SMILES) | pKd [5] | pKd [6] | pKd [7]
8.70 | 8.70 | – | – | C[C@@H](Nc1cc(F)cc(F)c1)c1cc(C(=O)NCCN(C)C)cc2ncc(N3CCOCC3)nc12 | – | – | –
8.15 | 8.22 | – | – | CNCCNC(=O)c1cc(C(C)Nc2cccc(F)c2)c2nc(N3CCOCC3)cnc2c1 (racemic) | – | – | –
8.40 | 8.87 | < 4.52 | – | CN(C)C(=O)c1cc(C2CCCN2c2cc(F)cc(F)c2)c2nc(N3CCOCC3)cnc2c1 (racemic) | – | – | –
< 6.29 | < 6.29 | < 4.52 | < 4.52 | CN(C)C(=O)c1cc([C@@H]2CCCN2c2cc(F)cc(F)c2)c2nc(N3CCOCC3)cnc2c1 | – | – | –
8.22 | 8.52 | < 4.52 | – | CC(Nc1cc(F)cc(F)c1)c1cc(C(=O)NCCN(C)C)cc2ncc(N3CCOCC3)nc12 (racemic) | – | – | –
8.05 | 8.05 | 4.75 | 5.18 | Cc1c(F)cccc1NCc1cc(C(=O)NCCN(C)C)cc2ncc(N3CCOCC3)nc12 | 6.49 | 9.70 | 5.72
6.48 | 6.83 | < 4.52 | – | C[C@H](Nc1cc(F)cc(F)c1)c1cc(C(=O)NCCN(C)C)cc2ncc(N3CCOCC3)nc12 | – | – | –
8.15 | 8.30 | < 4.52 | 6.67 | C[C@@H]1CN(C(=O)c2cc(C3CCCN3c3cc(F)cc(F)c3)c3nc(N4CCOCC4)cnc3c2)C[C@H](C)N1 (mixture of isomers) | 8.15 | 9.70 | 7.85

Structure (SMILES) | pIC50 [1] | pIC50 [2] | pKd [3] | pKd [4] | pKd [5] | pKd [6] | pKd [7]
C[C@H](Nc1cccc(F)c1)c1cc(C(=O)NCCO)cc2ncc(N3CCOCC3)nc12 | < 6.29 | < 6.29 | < 4.52 | – | – | – | –
CN(C)C(=O)c1cc([C@H]2CCCN2c2cc(F)cc(F)c2)c2nc(N3CCOCC3)cnc2c1 | 8.70 | 8.52 | 4.55 | 6.50 | 7.82 | 9.52 | 7.47
C[C@@H](Nc1cccc(F)c1)c1cc(C(=O)NCCO)cc2ncc(N3CCOCC3)nc12 | 7.31 | 7.36 | 4.77 | 5.47 | 6.49 | 8.52 | 5.96

— ChEMBL document CHEMBL4118086, “Potential of PI3Kβ Inhibitors in the Treatment of Cancer and Other Diseases” (ACS Med Chem Lett, 2017)
